# Reference: patent US9133139B2, “Fluoroalkyl-1,4-benzodiazepinone compounds” (BRISTOL-MYERS SQUIBB COMPANY, priority 2012, dated 2015)
# What was measured:
# [1] = Human metabolic stability half-life assay (liver microsomes); format: in vitro ADME; settings: pH 7.4, human liver microsomes, CYP-mediated (NADPH-dependent), 0.5 μM compound, 45-minute time course, read-out: HLM (t1/2, min)
# Procedure: Metabolic Stability Half-Life Panel
# Result Interpretation Guideline
# Incubation with Liver Microsomes
# Sample Analysis—Instrumentation
# [2] = system: TALL-1; assay: Human Tumor Xenograft Models in Mice, TALL-1; format: in vivo; settings: for Antitumor Activity in TALL-1 (LCK), QD dosing: oral, TALL-1 xenograft in NOD-SCID mice; for antitumor activity with oral administration (PO): Human Tumor Xenograft Models in mice
# Procedure: Human Tumor Xenograft Models in Mice
# Mice were fed food and water ad libitum.
# Preclinical Chemotherapy Trials
# When death occurred, the day of death was recorded.
# In Vivo Antitumor Activity
# [3] = system: human Notch 1; assay: Notch-CBF1 Transactivation Assay (luciferase reporter, transfected HeLa cells), Notch 1; format: cell-based; settings: read-out: Notch 1 (IC50); HeLa cells transfected with truncated Notch 1 and CBF1 luciferase reporter, 18 hours incubation
# Text: Notch-CBF1 Transactivation Assay
# The Notch-CBF1 (C-promoter binding factor I) cell based transactivation assay is based on the ability of the released Notch intracellular domain fragments (NICDs) to function as transcription factors in conjunction with CBF1 and other nuclear factors. Luciferase assays were used to measure the antagonism of Notch-CBF1 transcriptional activity. HeLa cervical cancer cells are transiently co-transfected with pCDNA3.1/Hygro plasmids containing truncated Notch 1, Notch 2, Notch 3, or Notch 4 receptors and a PGL3 luciferase reporter vector containing 4 copies of CBF1 binding site. The cells were then tested for Notch-CBF1 activity in the absence or presence of test compounds. HeLa cells, maintained in DMEM (high glucose with HEPES), 1× glutamine/penicillin/streptomycin and 10% Fetal Bovine serum, were transiently transfected in a T175 Flask (4.5×10^6 cells/flask) using the Monster Transfection Kit (Minis #MIR2906) according to manufacturers specifications. Table 2 denotes respective DNA quantity for the transfections.
# Assay media (5 μL) containing test compounds in final concentrations ranging from 5 μM to 8.4×10^−5 μM (3 fold serial dilutions) were added to the cells and the cell plates were then incubated for 18 hours at 37° C. and 5% CO2. Control wells contained DMSO vehicle (total counts) or 0.5 μM of an in-house small molecule inhibitor (background counts). Duplicates were used for each sample. Luciferase activity was measured after a 20-minute incubation with 50 μl STEADY-GLO® luciferase reagents according to manufacturer's specifications (Promega, Cat. #E2550) and analyzed by Envision plate reader (PerkinElmer, Boston, Mass.).
# The antagonist effect of compounds was expressed as 100×[1−(average sample−average background)/(average total−average background)] where sample is the luciferase activity in the presence of test compound, background is equal to the luciferase activity in the presence of the small molecule inhibitor control and the total is signal induced in DMSO wells.
SMILES,half-life at 0.5 μM [1] [min],further results
"CCC[C@H](C(N)=O)[C@@H](CC(C)C)C(=O)N[C@H]1N=C(c2ccccc2)c2ccccc2N(C)C1=O [Comparative Compound 37, reference compound]",≤ 8,–
"C=CC[C@H](C(N)=O)[C@@H](CC(C)C)C(=O)N[C@H]1N=C(c2ccccc2)c2cc(Cl)ccc2N(C)C1=O [Comparative Compound 38, reference compound]",≤ 8,–
"CCCC[C@H](C(N)=O)[C@@H](CC(C)C)C(=O)N[C@H]1N=C(c2ccc(Cl)cc2)c2ccccc2N(C)C1=O [Comparative Compound 39, reference compound]",≤ 8,–
"C=CC[C@H](C(N)=O)[C@@H](CC(C)C)C(=O)N[C@H]1N=C(c2ccccc2)c2ccccc2N(CCC)C1=O [Comparative Compound 40, reference compound]",≤ 8,–
"CN1C(=O)[C@@H](NC(=O)[C@H](CCC(F)(F)F)[C@@H](C(N)=O)c2ccccc2)N=C(c2ccccc2)c2ccccc21 [Example 1, (2R,3R)—N-((3S)-1-Methyl-2-oxo-5-phenyl-2,3-dihydro-1H-1,4-benzodiazepin-3-yl)-3-phenyl-2-(3,3,3-trifluoropropyl)succinamide]",–,"Antitumor Activity in TALL-1 (LCK), QD dosing ([2]; Dose 24 (unit not given)): 3.5 LCK; antitumor activity with oral administration (PO) [2]: showed antitumor activity"
"Cc1nocc1[C@H](C(N)=O)[C@@H](CCC(F)(F)F)C(=O)N[C@H]1N=C(c2ccccc2)c2ccccc2N(C)C1=O [Example 6, (2R,3R)—N1-((S)-1-Methyl-2-oxo-5-phenyl-2,3-dihydro-1H-benzo[e][1,4]diazepin-3-yl)-3-(3-methylisoxazol-4-yl)-2-(3,3,3-trifluoropropyl)succinamide]",≥ 30,–
Cc1nocc1[C@H](C(N)=O)[C@@H](CCC(F)(F)F)C(=O)N[C@H]1N=C(c2ccccc2)c2ccccc2NC1=O [Example 9],≥ 30,–
"Cc1nocc1[C@H](C(N)=O)[C@@H](CCC(F)(F)F)C(=O)N[C@H]1N=C(c2ccccc2)c2ccccc2N(c2ccccn2)C1=O [Example 11, (2R,3R)-3-(3-Methyl-4-isoxazolyl)-N-((3S)-2-oxo-5-phenyl-1-(2-pyridinyl)-2,3-dihydro-1H-1,4-benzodiazepin-3-yl)-2-(3,3,3-trifluoropropyl)succinamide]",≥ 30,IC50 [3]: 0.0129 µM
"NC(=O)[C@@H](c1ccccc1)[C@@H](CCC(F)(F)F)C(=O)N[C@H]1N=C(c2ccccc2)c2ccccc2N(c2ccccn2)C1=O [Example 12, (2R,3R)—N-((3S)-2-Oxo-5-phenyl-1-(2-pyridinyl)-2,3-dihydro-1H-1,4-benzodiazepin-3-yl)-3-phenyl-2-(3,3,3-trifluoropropyl)succinamide]",–,IC50 [3]: 0.0136 µM
"Cc1nocc1[C@H](C(N)=O)[C@@H](CCC(F)(F)F)C(=O)N[C@H]1N=C(c2ccccc2)c2cc3c(cc2NC1=O)OCO3 [Example 13, (2R,3R)-3-(3-Methyl-4-isoxazolyl)-N-((7S)-6-oxo-9-phenyl-6,7-dihydro-5H-[1,3]dioxolo[4,5-h][1,4]benzodiazepin-7-yl)-2-(3,3,3-trifluoropropyl)succinamide]",≥ 30,–
"COc1ccc(N2C(=O)[C@@H](NC(=O)[C@H](CCC(F)(F)F)[C@@H](C(N)=O)c3conc3C)N=C(c3ccccc3)c3ccccc32)nc1 [Example 14, (2R,3R)—N-((3S)-1-(5-Methoxy-2-pyridinyl)-2-oxo-5-phenyl-2,3-dihydro-1H-1,4-benzodiazepin-3-yl)-3-(3-methyl-4-isoxazolyl)-2-(3,3,3-trifluoropropyl)succinamide]",≥ 30,–
"COc1ccc(N2C(=O)[C@@H](NC(=O)[C@H](CCC(F)(F)F)[C@@H](C(N)=O)c3ccccc3)N=C(c3ccccc3)c3ccccc32)nc1 [Example 15, (2R,3R)—N-((3S)-1-(5-Methoxy-2-pyridinyl)-2-oxo-5-phenyl-2,3-dihydro-1H-1,4-benzodiazepin-3-yl)-3-phenyl-2-(3,3,3-trifluoropropyl)succinamide]",–,IC50 [3]: 0.0178 µM
"COc1cccc(N2C(=O)[C@@H](NC(=O)[C@H](CCC(F)(F)F)[C@@H](C(N)=O)c3ccccc3)N=C(c3ccccc3)c3ccccc32)n1 [Example 16, (2R,3R)—N-((3S)-1-(6-Methoxy-2-pyridinyl)-2-oxo-5-phenyl-2,3-dihydro-1H-1,4-benzodiazepin-3-yl)-3-phenyl-2-(3,3,3-trifluoropropyl)succinamide]",–,IC50 [3]: 0.0164 µM
"Cc1nocc1[C@H](C(N)=O)[C@@H](CCC(F)(F)F)C(=O)N[C@H]1N=C(c2ccccc2)c2cccc(Cl)c2NC1=O [Example 17, (2R,3R)—N1-((S)-9-Chloro-2-oxo-5-phenyl-2,3-dihydro-1H-benzo[e][1,4]diazepin-3-yl)-3-(3-methylisoxazol-4-yl)-2-(3,3,3-trifluoropropyl)succinamide]",≥ 30,–
"COc1cccc2c1NC(=O)[C@@H](NC(=O)[C@H](CCC(F)(F)F)[C@@H](C(N)=O)c1conc1C)N=C2c1ccccc1 [Example 20, (2R,3R)—N1-((S)-9-Methoxy-2-oxo-5-phenyl-2,3-dihydro-1H-benzo[e][1,4]diazepin-3-yl)-3-(3-methylisoxazol-4-yl)-2-(3,3,3-trifluoropropyl)succinamide]",≥ 30,–
"COc1cccc2c1NC(=O)[C@@H](NC(=O)[C@H](CCC(F)(F)F)[C@@H](C(N)=O)c1ccccc1)N=C2c1ccccc1 [Example 21, (2R,3R)—N1-((S)-9-Methoxy-2-oxo-5-phenyl-2,3-dihydro-1H-benzo[e][1,4]diazepin-3-yl)-3-phenyl-2-(3,3,3-trifluoropropyl)succinamide]",≥ 30,"Antitumor Activity in TALL-1 (LCK), QD dosing ([2]; Dose 40 (unit not given)): 2.7 LCK; antitumor activity with oral administration (PO) [2]: showed antitumor activity"
"Cc1cccc2c1NC(=O)[C@@H](NC(=O)[C@H](CCC(F)(F)F)[C@@H](C(N)=O)c1ccccc1)N=C2c1ccc(F)cc1 [Example 27, (2R,3R)—N1-((S)-5-(4-Fluorophenyl)-9-methyl-2-oxo-2,3-dihydro-1H-benzo[e][1,4]diazepin-3-yl)-3-phenyl-2-(3,3,3-trifluoropropyl)succinamide]",≥ 30,IC50 [3]: 0.0153 µM
"Cc1cccc2c1NC(=O)[C@@H](NC(=O)[C@H](CCC(F)(F)F)[C@@H](C(N)=O)c1conc1C)N=C2c1cccc(C(F)(F)F)c1 [Example 28, (2R,3R)—N1-((S)-9-Methyl-2-oxo-5-(3-(trifluoromethyl)phenyl)-2,3-dihydro-1H-benzo[e][1,4]diazepin-3-yl)-3-(3-methylisoxazol-4-yl)-2-(3,3,3-trifluoropropyl)succinamide]",≥ 30,–
"Cc1cccc2c1NC(=O)[C@@H](NC(=O)[C@H](CCC(F)(F)F)[C@@H](C(N)=O)c1ccccc1)N=C2c1cccc(C(F)(F)F)c1 [Example 29, (2R,3R)—N1-((S)-9-Methyl-2-oxo-5-(3-(trifluoromethyl)phenyl)-2,3-dihydro-1H-benzo[e][1,4]diazepin-3-yl)-3-phenyl-2-(3,3,3-trifluoropropyl)succinamide]",≥ 30,–
"Cc1cccc2c1NC(=O)[C@@H](NC(=O)[C@H](CCC(F)(F)F)[C@@H](C(N)=O)c1conc1C)N=C2c1cccc(Cl)c1 [Example 32, (2R,3R)—N1-((S)-5-(3-Chlorophenyl)-9-methyl-2-oxo-2,3-dihydro-1H-benzo[e][1,4]diazepin-3-yl)-3-(3-methylisoxazol-4-yl)-2-(3,3,3-trifluoropropyl)succinamide]",≥ 30,–
"Cc1cccc2c1NC(=O)[C@@H](NC(=O)[C@H](CCC(F)(F)F)[C@@H](C(N)=O)c1ccccc1)N=C2c1cccc(C(F)F)c1 [Example 34, (2R,3R)—N1-((S)-5-(3-(Difluoromethyl)phenyl)-9-methyl-2-oxo-2,3-dihydro-1H-benzo[e][1,4]diazepin-3-yl)-3-phenyl-2-(3,3,3-trifluoropropyl)succinamide]",≥ 30,–
"NC(=O)[C@@H](c1ccccc1)[C@@H](CCC(F)(F)F)C(=O)N[C@H]1N=C(c2cccc(F)c2)c2cccc(OC3CC3)c2NC1=O [Example 35, (2R,3R)—N1-((S)-9-Cyclopropoxy-5-(3-fluorophenyl)-2-oxo-2,3-dihydro-1H-benzo[e][1,4]diazepin-3-yl)-3-phenyl-2-(3,3,3-trifluoropropyl)succinamide]",≥ 30,–
"COc1cccc2c1NC(=O)[C@@H](NC(=O)[C@H](CCC(F)(F)F)[C@@H](C(N)=O)c1ccc(Cl)cc1)N=C2c1ccccc1 [Example 36, (2R,3R)-3-(4-Chlorophenyl)-N1-((S)-9-methoxy-2-oxo-5-phenyl-2,3-dihydro-1H-benzo[e][1,4]diazepin-3-yl)-2-(3,3,3-trifluoropropyl)succinamide]",≥ 30,–
